Source: patent US6287840A (Axys Pharmaceuticals, Inc., priority 1999, dated 2001)

Legend:
Format in all cases: biochemical
[1] = molecular target: T1, Cathepsin L from rat liver (Rattus norvegicus, UniProt P07154); assay: Inhibition of cathepsin L, Z-Phe-Arg-AMC fluorescence progress curves; conditions: for k/KI (kirr/KI): values without asterisk
T1 construct: Cathepsin L from rat liver; from tissue; host or cells: rat liver
Experimental: (§1) Stock solutions of the various inhibitors (10 mM) were made in DMF; dilutions were made in the same solvent. Cathepsin L from rat liver, (see Mason et al., Biochem. J. 226:233-241 (1985)) was approximately 1 nM in the assay. The assay buffer contained 50 mM phosphate at pH 6:2, 2.5 mM dithiothreitol (DTT), and 2.5 mM ethylenediaminetetraacetic acid (EDTA). The substrate for cathepsin L was 5 μM Z-Phe-Arg-AMC (carbobenzyloxyphenylalanylarginylaminomethylcoumarin). The assays were initiated at 25° C. by addition of enzyme to 2 mL of assay buffer containing the substrate and the various inhibitors (30-0.001 μM). The increase in fluorescence at 460 nm with excitation at 380 nm was followed with time. Inactivation of cathepsin L was indicated by a downward curve in the increase in fluorescence with time. In the absence of inhibitors, the enzymatic production of free AMC was linear throughout the time course of inactivation examined. Data points were collected over at least 3 half-times of inactivation. The inhibition progress curves were analyzed using non-linear curve fitting software to compute the kobs values. Approximate second-order inactivation constants (kobs /[I]) were calculated for all compounds. For selected inhibitors, plots of 1/[I] vs. 1/kobs yielded the true constants kirr, KI, and kirr/KI and were corrected for the presence of substrate by dividing KI (app.) by (1+[S]/Km).

[2] = molecular target: T2, Cathepsin B from human placenta (Homo sapiens, UniProt P07858); assay: Inhibition of cathepsin B, Z-Arg-Arg-AMC fluorescence progress curves; conditions: for k/KI (kirr/KI): values without asterisk
T2 construct: Cathepsin B from human placenta, obtained from Sigma; purchased Sigma; host or cells: human placenta (tissue)
Experimental: Stock solutions of the various inhibitors (10 mM) were made in DMF; dilutions were made in the same solvent. Cathepsin B from human placenta, obtained from Sigma, was approximately 10 nM in the assay. The assay buffer contained 50 mM phosphate at pH 6.2, 2.5 mM dithiothreitol (DTT), and 2.5 mM ethylenediaminetetraacetic acid (EDTA). The substrate for cathepsin B was 50 μM Z-Arg-Arg-AMC (carbobenzyloxyarginylarginylaminomethylcoumarin). The assays were initiated at 25° C. by addition of enzyme to 2 mL of assay buffer containing the substrate and the various inhibitors (30-0.001 (μM). The increase in fluorescence at 460 nm with excitation at 380 nm was followed with time, and the assay was linear throughout the range observed. Inactivation of cathepsin B was indicated by a downward curve in the increase in fluorescence with time. In the absence of inhibitors, the enzymatic production of free AMC was linear throughout the time course of inactivation examined. Data points were collected over at least 3 half-times of inactivation, and in duplicate. The inhibition progress curves were analyzed using non-linear curve fitting software to compute the kobs values. Approximate second-order inactivation constants (kobs /[I]) were calculated for all compounds. For selected inhibitors, plots of 1/[I] vs. 1/kobs yielded the true constants kirr, KI, and kirr /KI, and were corrected for the presence of substrate by dividing KI (app.) by {1+[S]/Km }.

Cloned cathepsin S = molecular target: T3, Cloned cathepsin S (Homo sapiens, UniProt P25774); assay: Inhibition of cathepsin S, Z-Val-Val-Arg-AMC fluorescence progress curves; conditions: for k/KI (kirr/KI): values without asterisk
T3 construct: made in house
T3 sequence (P25774 115-331): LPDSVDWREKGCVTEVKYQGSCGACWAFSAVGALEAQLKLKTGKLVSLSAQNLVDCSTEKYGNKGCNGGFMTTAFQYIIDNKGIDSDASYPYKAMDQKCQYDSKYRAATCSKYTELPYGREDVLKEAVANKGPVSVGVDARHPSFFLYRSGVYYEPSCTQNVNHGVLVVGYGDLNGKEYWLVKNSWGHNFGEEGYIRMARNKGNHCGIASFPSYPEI
Experimental: Stock solutions of the various inhibitors (10 mM) were made in DMF; dilutions were made in the same solvent. Cloned cathepsin S, (see Bromme et al., J. Biol. Chem. 268(&): 4832-4838 (1993)) was less than 1 nM in the assay. The assay buffer contained 100 mM phosphate at pH 6.5, 0.01% Triton, 2.5 mM dithiothreitol (DTT), and 2.5 mM ethylenediaminetetraacetic acid (EDTA). The substrate for cathepsin S was 10 μM Z-Val-Val-Arg-AMC (carbobenzyloxyvalinylvalinylarginylaminomethylcoumarin). The assays were initiated at 25° C. by addition of enzyme to 2 mL of assay buffer containing the substrate and the various inhibitors (30-0.001 μM). The increase in fluorescence at 460 nm with excitation at 380 nm was followed with time. Inactivation of cathepsin S was indicated by a downward curve in the increase in fluorescence with time. In the absence of inhibitors, the enzymatic production of free AMC was linear throughout the time course of inactivation examined. Data points were collected over at least 3 half-times of inactivation. The inhibition progress curves were analyzed using non-linear curve fitting software to compute the kobs values. Approximate second-order inactivation constants (kobs /[I]) were calculated for all compounds. For selected inhibitors, plots of 1/[I] vs. 1/kobs yielded the true constants kirr, KI, and kirr /KI, and were corrected for the presence of substrate by dividing KI (app.) by {1+[S]/Km}.

cruzain, from T. cruzi = cruzain, from T. cruzi (Trypanosoma cruzi, UniProt P25779); assay: Inhibition of cruzain, as for cathepsin L; conditions: for k/KI (kirr/KI): values without asterisk
Chain of cruzain, from T. cruzi (P25779 123-337 limits assumed): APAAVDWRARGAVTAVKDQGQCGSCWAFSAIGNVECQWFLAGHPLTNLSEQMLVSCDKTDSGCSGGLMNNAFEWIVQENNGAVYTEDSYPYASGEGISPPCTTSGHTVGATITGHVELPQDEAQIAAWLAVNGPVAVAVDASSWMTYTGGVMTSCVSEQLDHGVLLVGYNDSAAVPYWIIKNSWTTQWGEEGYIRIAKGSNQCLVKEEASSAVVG
Experimental: as §1
Inhibition of cruzain, from T. cruzi, (see Eakin et at., J. Biol. Chem. 268(9): 6115-6118 (1993)) proceeded exactly as for cathepsin L, outlined above, using an enzyme concentration of 1 nM.

calpain = assay: Inhibition (inactivation) of calpain, Suc-Leu-Tyr-AMC; conditions: values marked * (or %), pH 7.5, 5 mM CaCl2, 25° C.
Experimental: The inhibitors were tested against calpain at 1 or 2% as for the other enzymes. The reaction conditions were 50 mM Tris, pH 7.5, 5 mM CaCl2, 2.5 mM DTT, assayed at 25° C. The substrate was 100 μM Suc-Leu-Tyr-AMC.

[3] = values marked *, 25° C., pH 6.2
[4] = values marked *, 25° C., pH 6.2, read-out: kobs /[I]* (approximate second-order inactivation constant)
[5] = values marked *, 25° C., pH 6.5

T1 sequence (P07154 114-288 limits assumed): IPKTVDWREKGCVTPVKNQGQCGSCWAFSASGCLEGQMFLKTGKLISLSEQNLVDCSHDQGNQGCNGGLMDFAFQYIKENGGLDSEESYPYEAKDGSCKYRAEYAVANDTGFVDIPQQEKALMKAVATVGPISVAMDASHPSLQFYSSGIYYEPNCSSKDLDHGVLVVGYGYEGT
T1 sequence (P07154 291-334 limits assumed): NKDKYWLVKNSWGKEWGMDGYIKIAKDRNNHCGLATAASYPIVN

| Molecule | k/KI (kirr/KI) ([1]; 25° C., pH 6.2) | k/KI (kirr/KI) (Cloned cathepsin S; 25° C., pH 6.5) | k/KI (kirr/KI) (cruzain, from T. cruzi) | kobs /[I]* (calpain) | k/KI (kirr/KI) ([2]; 25° C., pH 6.2) | kobs /[I]* (approximate second-order inactivation constant) (Cloned cathepsin S; [5]) | also measured |
| --- | --- | --- | --- | --- | --- | --- | --- |
| (S)-(E)-3-(4-morpholinecarbonylphenylalanyl)amino-5-methylsulfonyl-1-phenylsulfonyl-1-pentene [Mu-Phe-Met(O2)VSPh] | 250,000 M^-1 sec^-1 | 2,800,000 M^-1 sec^-1 | 160,000 M^-1 sec^-1 |  |  |  | kobs /[I]* (approximate second-order inactivation constant) [2, 3]: 1,600 M^-1 sec^-1 |
| (S)-(E)-3-(4-morpholinecarbonylvalyl)amino-4-phenyl-1-phenylsulfonyl-1-butene [Mu-Val-PheVSPh] |  |  |  | 110 M⁻¹ s⁻¹ |  |  |  |
| Cl.N[C@H](/C=C/S(=O)(=O)c1ccccc1)Cc1ccccc1 [Phe-VSPh, (S)-(E)-3-amino-4-phenyl-1-phenylsulfonyl-1-butene hydrochloride] |  |  |  | < 50 M⁻¹ s⁻¹ |  |  |  |
| CSCC[C@@H](/C=C/S(=O)(=O)c1ccccc1)NC(=O)[C@H](Cc1ccccc1)NC(=O)N1CCOCC1 [Mu-Phe-MetVSPh, (S)-(E)-3-(4-morpholinecarbonylphenylalanyl)amino-1-phenylsulfonyl-6-thia-1-heptene] | 250,000 M^-1 sec^-1 | 4,000,000 M^-1 sec^-1 | 111,000 M^-1 sec^-1 |  | 7,000 M^-1 sec^-1 |  |  |
| C[C@H](NC(=O)OC(C)(C)C)C(=O)N[C@H](/C=C/S(C)(=O)=O)Cc1ccccc1 [Boc-Ala-PheVSMe, (S)-(E)-3-(tert-2butoxycarbonylalanyl)amino-1-methylsulfonyl-4-phenyl-1-butene] |  |  |  | 60 M⁻¹ s⁻¹ |  |  |  |
| COC(=O)CCC(=O)N[C@@H](Cc1ccccc1)C(=O)N[C@H](/C=C/S(=O)(=O)c1ccccc1)CCc1ccccc1 [MeOSuc-Phe-HphVSPh, (S)-(E)-3-(carbomethoxypropionylphenylalanyl)amino-5-phenyl-1-phenylsulfonyl-1-pentene] |  |  |  |  |  |  | kinact/KI [1, 4]: 47000 M⁻¹ s⁻¹; kinact/KI [2, 4]: 870 M⁻¹ s⁻¹; kinact/KI (Cloned cathepsin S; values marked *, 25° C., pH 6.5, read-out: kobs /[I]* (approximate second-order inactivation constant)): 740000 M⁻¹ s⁻¹; kinact/KI (cruzain, from T. cruzi; pH 6.2, values marked *, read-out: kobs /[I]* (approximate second-order inactivation constant)): 34000 M⁻¹ s⁻¹ |
| O=C(N[C@H](/C=C/S(=O)(=O)c1ccc2ccccc2c1)CCc1ccccc1)C(Cc1ccc2ccccc2c1)NC(=O)N1CCOCC1 (stereo partly drawn) [Mu-Np-HphVSNp, (S)-(E)-3-(4-morpholinecarbonyl-2-naphthylalanyl)amino-1-(2-napthylsulfonyl)-5-phenyl-1-pentene] | 9,200,000 M^-1 sec^-1 | 56,000,000 M^-1 sec^-1 | 1,770,000 M^-1 sec^-1 |  |  |  | kirr [1]: 0.14 s⁻¹; Ki ([1]; corrected for substrate): 0.018 µM; kobs /[I]* (approximate second-order inactivation constant) [2, 3]: 184,000 M^-1 sec^-1; kirr (Cloned cathepsin S): 0.10 s⁻¹; Ki (Cloned cathepsin S; corrected for substrate): 0.0018 µM; Ki (cruzain, from T. cruzi): 0.025 µM; kirr (cruzain, from T. cruzi): 0.044 s⁻¹ |
| CCCC[C@@H](/C=C/S(=O)(=O)c1ccccc1)NC(=O)[C@H](Cc1ccccc1)NC(=O)N1CCOCC1 [Mu-Phe-NleVSPh, (S)-(E)-3-(4-morpholinecarbonylphenylalanyl)amino-1-phenylsulfonyl-1-heptene] | 188,000 M^-1 sec^-1 |  | 77,000 M^-1 sec^-1 |  | 7,600 M^-1 sec^-1 | 2,300,000 M^-1 sec^-1 |  |
| O=C(N[C@H](/C=C/S(=O)(=O)c1ccc2ccccc2c1)CCc1ccccc1)[C@H](Cc1ccccc1)NC(=O)N1CCOCC1 [Mu-Phe-HphVSNp, (S)-(E)-3-(4-morpholinecarbonylphenylalanyl)amino-1-(2-napthylsulfonyl)-5-phenyl-1-pentene] |  |  | 740,000 M^-1 sec^-1 |  | 63,700 M^-1 sec^-1 | > 5,400,000 M^-1 sec^-1 | kirr [2]: 0.087 s⁻¹; Ki ([2]; corrected for substrate): 1.4 µM; Ki (cruzain, from T. cruzi): 0.11 µM; kirr (cruzain, from T. cruzi): 0.08 s⁻¹ |
| (S)-(E)-3-(4-morpholinecarbonylleucylleucyl)amino-4-(4-hydroxyphenyl)-1-phenylsulfonyl-1-butene [Mu-Leu-Leu-TyrVSPh] |  |  |  | 10,800 M^-1 sec^-1 |  | 25,100 M^-1 sec^-1 | kobs /[I]* (calpain; listed as Mu-Leu-Leu-Tyr-VSPh): 7,600 M^-1 sec^-1 |
